Data from article PMC11412900 (Molecular Psychiatry, 2024).
Like-named read-outs stand apart in the source and are kept apart here.

Columns and labels:
SERT [1] = target: T1, SERT (Homo sapiens, UniProt P31645); assay: [3H]5-HT uptake inhibition in HEK293 cells expressing hSERT; format: cell-based
T1 construct: YFP (yellow-fluorescent protein); expressed in transfected cells
Experimental: See the Supplementary Material for cell culture procedures. The medium was removed from each well and replaced with 200 μL/well of Krebs-HEPES-Buffer (KHB). The cells were pre-incubated for 5 min with different concentrations of drug in KHB at 50 μL/well. […] The incubation solution was aspirated and the cells were washed with ice-cold KHB and lysed with 1% sodium dodecyl sulfate (SDS). The lysate was collected into vials and scintillation liquid was added. The radioactivity was quantified using a beta-scintillation counter (Perkin Elmer, Waltham, MA, USA). Non-specific uptake was determined in the presence of 30 μM paroxetine. Data were expressed as percentage of control uptake (absence of tryptamine).
(§1) The generation and maintenance of HEK293 cells stably expressing the yellow-fluorescent protein (YFP)-tagged version of the human isoform of SERT (hSERT) (Perkin Elmer, Waltham, MA, USA) was carried out as described previously. For uptake inhibition and batch release assays, cells were seeded onto previously poly-D-lysine (PDL)-coated 96-well plates at a density of 0.036 million cells per well [5]. For superfusion release assays, cells were seeded onto a previously coated with PDL 6 channel µ-slide at a density of 0.08 million cells per channel. Prior to patching, cells were grown in DMEM containing 10% FBS, Zeocin (150 µg/mL) and Blasticidin (6 µg/mL) for positive selection of transporter-expressing clones. The cells were seeded at a low density on PDL-coated 35 mm plates 24-48 hr prior to patching. For membrane preparation, HEK293 cells expressing hSERT transporters were harvested from 80–90% confluent dishes as described elsewhere. Protein concentration was determined using the Bio-RadProtein Reagent (Bio Rad Laboratories, Hercules, CA, USA). Membrane preparations were stored at −80°C until use. Generation and maintenance of CHO-K1 cells expressing the human isoform of 5-HT2AR (h5-HT2AR) was carried out as described in the manufacturer’s protocol (Perkin Elmer, Waltham, MA, USA). Routine DAPI-Staining assays tested negative in mycoplasma contamination.

SERT [2] = target: T1, SERT; assay: Whole-cell patch clamp, transporter-mediated currents in HEK293 cells; format: cell-based; conditions: for EC50: clamped at −60 mV, N = 5, read-out: SERT-mediated inward current EC50; for SERT-mediated inward current Emax: normalized to current elicited by 5-HT 10 µM; for SERT substrate type: whole-cell patch clamp
Description: Whole-cell patch clamping was used to measure the transporter-mediated currents and performed as previously described. […] Cells were continuously superfused by a DAD-12 superfusion system and an 8-tube perfusion manifold (ALA Scientific Instruments in Farmingdale, NY, USA), which allowed to apply a physiological external solution. The pipette solution mimics the internal ionic composition of a cell. […] Passive holding currents were subtracted, and the traces were filtered using a 50-Hz digital Gaussian low-pass filter for analysis purposes. Five independent experiments were performed.

[3] = test system: head twitch response in mice; assay: Head twitch response (HTR); format: in vivo; conditions: mice, i.p.; for HTR Emax (95% CI): 10-min period
Experimental: HTR studies were adapted from. Mice (N = 8–10 per group) were injected intraperitoneally (i.p.) with saline or the appropriate tryptamine dose (0.3, 1, 3, 10, or 30 mg/kg) and placed into the observation arena (25 × 25 × 40 cm). A camera mounted above the observation cage recorded the mice for the next 10 min after the injection. Another batch of animals (N = 8–10) received subcutaneous injections of either saline or the respective antagonist (WAY100635 1 mg/kg for 5-HT1AR or ketanserin 1 mg/kg for 5-HT2AR). After a 10-min interval, the animals were i.p. injected with the corresponding tryptamine (10 mg/kg) and placed in the observation arena. Animal behavior was recorded for the next 10 min after the last injection, as mentioned before. Video recordings were examined by two blind observers blinded to the treatments, who assessed the number of head twitches, defined as a rapid rotational jerk of the head which is not contiguous with any grooming behavior [39].
Data were expressed as means±standard deviation (SD). Competition, release and functional assays, and substrate-induced current curves were plotted and fitted by non-linear regression to obtain the IC50, EC50, and Emax values. For behavioral studies, data were fitted by non-linear regression and pED50 and Emax values (with the corresponding 95% CI) were estimated by means of a software (GraphPad Prism 10) that further extrapolates the data. The Cheng-Prusoff equation was used to calculate Ki (affinity): Ki = […]/(1 + [radioligand-concentration/Kd]). HTR curves were fitted using a Gaussian equation as described. Data from batch release assays were statistically analyzed with a mixed-effects model, employing Šidák’s correction for multiple comparisons. Total release at each concentration and the behavioral experiments with the corresponding antagonists were statistically analyzed using one-way ANOVA, followed by Tukey’s post-hoc test. Molecular volume (van der Waals) was calculated using a grid approximation (spacing 0.75 Å). logP was calculated using Molinspiration Cheminformatics software. For in vivo studies, one-way ANOVA with Dunnet’s post-hoc test was used to compare all conditions to saline in dose-response experiments when data were normally distributed. Otherwise, a non-parametric test (Kruskall-Wallis with Dunn’s post-hoc test) was used. Alpha was set at 0.05. Outliers were excluded following ROUT’s method (Q = 0.1%). All statistical analyses and Pearson correlations were conducted using GraphPad Prism 10 software (GraphPad software, San Diego, CA, USA).

SERT [4] = target: T1, SERT; assay: Radioligand binding, [3H]imipramine displacement
Experimental: Binding assays were performed as described previously. Briefly, membrane preparations expressing h5-HT1AR, h5-HT2AR or hSERT (see Supplementary Material) were incubated with radiolabeled selective ligands 0.4 nM [^3H]8-OH-DPAT, 1 nM [^3H]ketanserin or 3 nM [^3H]imipramine, respectively. The drugs were diluted in the corresponding binding buffer and tested at increasing concentrations in duplicate. Binding reactions were performed in tubes containing the drug dilutions; 25 μl of the corresponding radioligand; and the membranes (10 μg and 5 μg/500 μL for 5-HT1AR and 5-HT2AR, respectively, and 15 μg/100 μL for hSERT), all diluted in binding buffer. […] Incubation was performed for 1 h at 27 °C for 5-HT1A/2AR and 22 °C for hSERT, according to the manufacturer’s protocol (Perkin Elmer, Inc., Waltham, MA, USA) and previous studies - saturation and kinetic experiments, respectively. The binding reactions were stopped by rapid filtration through GF/B glass microfiber filters pre-soaked with 0.5% polyethyleneimine and washing with ice-cold wash buffer. The filters were placed into vials and scintillation cocktail was added. The trapped radioactivity was quantified. Specific binding was defined as the difference between total binding (binding buffer alone) and non-specific binding. Experiments were conducted per duplicate for at least three independent experiments.
as §1

[5] = read-out: 5-HT uptake inhibition IC50 ± SD, HEK293 hSERT, N ≥ 3
[6] = 3 nM [3H]imipramine, N ≥ 3, read-out: SERT Ki ± SD

T1 sequence (P31645 whole entry): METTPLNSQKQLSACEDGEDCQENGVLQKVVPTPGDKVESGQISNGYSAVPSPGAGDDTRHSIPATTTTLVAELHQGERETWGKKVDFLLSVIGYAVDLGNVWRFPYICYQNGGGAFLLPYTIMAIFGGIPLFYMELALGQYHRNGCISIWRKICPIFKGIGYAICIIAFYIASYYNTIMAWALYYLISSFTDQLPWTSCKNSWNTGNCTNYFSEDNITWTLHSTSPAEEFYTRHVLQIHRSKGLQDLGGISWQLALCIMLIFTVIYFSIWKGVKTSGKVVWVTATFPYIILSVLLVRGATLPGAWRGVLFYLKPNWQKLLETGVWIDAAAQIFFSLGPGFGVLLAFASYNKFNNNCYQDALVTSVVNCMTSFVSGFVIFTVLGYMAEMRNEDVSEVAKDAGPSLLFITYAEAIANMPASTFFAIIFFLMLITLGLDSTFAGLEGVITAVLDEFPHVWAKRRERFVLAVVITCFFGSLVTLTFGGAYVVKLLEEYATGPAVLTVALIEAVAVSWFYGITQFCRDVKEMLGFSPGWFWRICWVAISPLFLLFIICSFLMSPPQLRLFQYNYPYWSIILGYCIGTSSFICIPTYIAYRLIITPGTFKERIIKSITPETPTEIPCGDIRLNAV

Compound	IC50 (SERT [1]; [5])	EC50 (SERT [2])	SERT-mediated inward current Emax (SERT [2])	SERT substrate type (SERT [2])	HTR Emax (95% CI) [3]	HTR ED50 ([3]; 10 min after injection)	Ki (SERT [4]; [6])	IC50 (SERT [1])	ED50 ([3]; Mus musculus, ip, 10 min, 10 min after injection)	Ki (SERT [4])
COc1ccc2[nH]cc(CCN3CCCC3)c2c1 [5-MeO-pyr-T]	2.77 ± 1.43 µM	0.09 µM	0.49	partial SERT substrates	10.0 (6.9–13.1) HTR events	7.29 mg/kg	3010 ± 354 nM			
COc1ccc2[nH]cc(CCN(C(C)C)C(C)C)c2c1 [5-MeO-DIPT, 5-methoxy-N,N-diisopropyltryptamine]					10.5 (8.5–12.5) HTR events			24.2 µM	0.477 mg/kg	1620 ± 475 nM
CCN(C)CCc1c[nH]c2ccc(OC)cc12 [5-MeO-MET]	30.1 µM	13 µM	0.46	partial SERT substrates	28.4 (23.5–33.2) HTR events	2.72 mg/kg	7710 ± 3380 nM			
CCN(CC)CCc1c[nH]c2ccc(OC)cc12 [5-MeO-DET]	60 µM	3.5 µM	0.26	partial SERT substrates	9.73 (7.61–11.85) HTR events	2.32 mg/kg	10400 nM			
COc1ccc2[nH]cc(CCN(C)C(C)C)c2c1 [5-MeO-MIPT]	29.8 µM				14.19 (11.7–16.68) HTR events	0.791 mg/kg	2870 ± 928 nM			
C=CCN(CC=C)CCc1c[nH]c2ccc(OC)cc12 [5-MeO-DALT]	22.3 µM				10.4 (8.5–12.4) HTR events	4.16 mg/kg	1190 ± 96 nM			
CCN(CCc1c[nH]c2ccc(OC)cc12)C(C)C [5-MeO-EIPT]	22.2 µM				9.27 (7.10–11.44) HTR events	10.6 mg/kg	1780 ± 83 nM			
